# In paper PMC6155021, “Ancient and modern anticonvulsants act synergistically in a KCNQ potassium channel binding pocket” (Nature Communications, 2018):
# Biological target: KCNQ2/3 channels (Homo sapiens, UniProt O43525+O43526)
# Assay: Two-electrode voltage-clamp of KCNQ2/3 channels expressed in Xenopus laevis oocytes
# Type: cell-based
# Conditions: for Non-normalized tail current V0.5 / Normalized tail current V0.5 / Slope: KCNQ2/3; for effect on voltage dependence of KCNQ2/3 activation (initial screen): tail currents at −30 mV
# From the text: cRNA transcripts encoding human KCNA1, KCNQ1, KCNQ2, KCNQ3, KCNQ4, or KCNQ5 were generated by in vitro transcription using the T7 polymerase message machine kit (Thermo Fisher Scientific), after vector linearization, from cDNA sub-cloned into plasmids incorporating X. laevis β-globin 5′ and 3′ UTRs flanking the coding region to enhance translation and cRNA stability. cRNA was quantified by spectrophotometry. Mutant cDNAs were generated by site-directed mutagenesis using a QuikChange kit according to manufacturer’s protocol (Stratagene, San Diego, CA) and corresponding cRNAs prepared as above. Defolliculated stage V and VI X. laevis oocytes (Ecocyte Bioscience, Austin, TX) were injected with Kv channel α subunit cRNAs (10 ng total per oocyte). Oocytes were incubated at 16 °C in Barth’s saline solution (Ecocyte) containing penicillin and streptomycin, with daily washing, for 3–5 days prior to two-electrode voltage-clamp (TEVC) recording.
# Oocytes were placed in a small-volume oocyte bath (Warner) and viewed with a dissection microscope. Chemicals were sourced from Sigma. Bath solution was (in mM): 96 NaCl, 4 KCl, 1 MgCl2, 1 CaCl2, 10 HEPES (pH 7.6). […] MTX (DMSO), sorbic acid (ethanol), and glutaconic acid (molecular grade H2O) were stored at −20 °C as 1 M stocks. Oleamide was stored as a 1 mM stock in ethanol at 4 °C. Palmitic acid was conjugated with bovine serum albumin as a 1 mM stock and stored at −20 °C. All compounds were diluted to working concentrations each experimental day. All compounds were introduced to the recording bath via gravity perfusion at a constant flow of 1 ml/min for 3 min prior to recording. Pipettes were of 1–2 MΩ resistance when filled with 3 M KCl. Currents were recorded in response to pulses between −80 and +40 mV at 20 mV intervals, or a single pulse to +40 mV, from a holding potential of −80 mV, to yield current–voltage relationships, current magnitude, and for quantifying activation rate. TEVC data analysis was performed with Clampfit10.2 (Molecular Devices) and Graphpad Prism software (GraphPad, San Diego, CA, USA); values are stated as mean ± SEM. Normalized tail currents were plotted versus prepulse voltage and fitted with a single Boltzmann function:1 g=A1-A2/1+expV12-Vy+A2, where g is the normalized tail conductance, A1 is the initial value at −∞, A2 is the final value at +∞, V1/2 is the half-maximal voltage of activation, and Vs the slope factor. Activation and deactivation kinetics were fitted with single-exponential functions.
Non-normalized tail current V0.5 (100 µM) [mV],Normalized tail current V0.5 (100 µM) [mV],Slope (100 µM) [mV],Non-normalized tail current V0.5 (0.1 µM) [mV],Normalized tail current V0.5 (0.1 µM) [mV],Slope (0.1 µM) [mV],Non-normalized tail current V0.5 (1 µM) [mV],Normalized tail current V0.5 (1 µM) [mV],Slope (1 µM) [mV],Non-normalized tail current V0.5 (10 µM) [mV],Normalized tail current V0.5 (10 µM) [mV],Slope (10 µM) [mV],SMILES,also measured
-40.8 ± 3.8,-40.7 ± 1.2,5.4 ± 1.7,-40.4 ± 1.5,-41.2 ± 1.4,4.4 ± 3.7,-41.5 ± 1.3,-42.7 ± 1.7,4.8 ± 2.4,-42.1 ± 3.8,-42.9 ± 2.2,5.4 ± 2.3,"O=C(O)/C=C/CC(=O)O [Glutaconic Acid, glutaconic acid]",effect on voltage dependence of KCNQ2/3 activation (initial screen) (100 µM): negative-shifted; Non-normalized tail current V0.5 (500 µM): -38.5 ± 5.4 mV; Normalized tail current V0.5 (500 µM): -37.7 ± 0.9 mV; Slope (500 µM): 6.8 ± 0.9 mV
–,–,–,-43.6 ± 5.0,-44.3 ± 1.7,7.9 ± 1.7,-45.6 ± 5.5,-46.6 ± 1.7,7.4 ± 1.7,-43.1 ± 4.9,-44.9 ± 0.9,6.8 ± 0.9,"CCCCCCCCCCCCCCCC(=O)O [Palmitic Acid, palmitic acid]",effect on voltage dependence of KCNQ2/3 activation (initial screen) (30 µM): negative-shifted; Non-normalized tail current V0.5 (3 µM): -45.1 ± 5.4 mV; Normalized tail current V0.5 (3 µM): -46.5 ± 1.1 mV; Slope (3 µM): 7.1 ± 1.1 mV; Non-normalized tail current V0.5 (30 µM): -43.5 ± 4.9 mV; Normalized tail current V0.5 (30 µM): -44.3 ± 1.4 mV; Slope (30 µM): 7.0 ± 1.1 mV
-41.9 ± 3.5,-41.5 ± 0.8,6.6 ± 0.8,-41.9 ± 4.8,-41.8 ± 0.6,6.5 ± 0.9,-41.6 ± 4.3,-41.5 ± 0.8,6.7 ± 1.1,-39.4 ± 4.8,-39.2 ± 0.8,7.0 ± 0.8,"CCCCCCCC/C=C\CCCCCCCC(N)=O [Oleamide, oleamide]",Non-normalized tail current V0.5 (500 µM): -37.6 ± 2.1 mV; Normalized tail current V0.5 (500 µM): -37.9 ± 0.8 mV; Slope (500 µM): 6.7 ± 0.6 mV

# The remaining lines, values behind:
SMILES,Non-normalized tail current V0.5 (100 µM) [mV],Normalized tail current V0.5 (100 µM) [mV],Slope (100 µM) [mV],Non-normalized tail current V0.5 (0.1 µM) [mV],Normalized tail current V0.5 (0.1 µM) [mV],Slope (0.1 µM) [mV],Non-normalized tail current V0.5 (1 µM) [mV],Normalized tail current V0.5 (1 µM) [mV],Slope (1 µM) [mV],Non-normalized tail current V0.5 (10 µM) [mV],Normalized tail current V0.5 (10 µM) [mV],Slope (10 µM) [mV],also measured
C=CCCCCC [1-Heptene],-41.9 ± 4.9,-41.8 ± 0.9,5.8 ± 1.5,–,–,–,–,–,–,–,–,–,–
"O=C1c2ccccc2C(Cc2ccncc2)(Cc2ccncc2)c2ccccc21 [XE991, reference compound]",–,–,–,–,–,–,–,–,–,–,–,–,"effect on MTX-activated KCNQ2/3 current (wash-in of MTX followed by XE991, −60 mV): rapidly inhibited"
CCC1=C(O)C(=O)CC1 [3-ethyl-2-hydroxy-2-cyclopenten-1-one],-40.1 ± 1.9,-41.0 ± 0.9,5.1 ± 0.9,–,–,–,–,–,–,–,–,–,–
"C/C=C/C=C/C(=O)O [Sorbic Acid, sorbic acid]",-39.9 ± 3.0,-39.9 ± 0.9,4.2 ± 0.9,–,–,–,–,–,–,–,–,–,–
